Earlier results as cited in patent US20220370529A1, “CANNABIS COMPOSITIONS AND RELATED METHODS” (Access Business Group International LLC, priority 2021, published 2022).

Key:
[1] = tested on: human keratinocytes (HaCaT cells); settings: of 26 genes upregulated by TNF-α treatment
[2] = tested on: human dermal fibroblast (HDF); settings: HDF cells
[3] = with rapid metabolism or redistribution

SMILES	partition coefficient (log P)	inflammatory related genes downregulated [1] [genes]	inhibitory effects on genes playing a role in inflammation and matrix remodeling, including IL-6 and MMP-9 ([2]; TNF-α treatment)	wound healing genes downregulated ([2]; of 16 genes upregulated by TNF-α treatment) [genes]	human pulmonary uptake [3] [%]
C=C(C)[C@@H]1CCC(C)=C[C@H]1c1c(O)cc(CCCCC)cc1O [CBD, cannabidiol]	~6.3	15	did not exhibit any inhibitory effects	11	
CC1=CC[C@H]2C[C@@H]1C2(C)C [α-Pinene, α-pinene]					~60
